According to paper PMC9090415, “Discovery of small molecule inhibitors of Plasmodium falciparum apicoplast DNA polymerase” (Journal of Enzyme Inhibition and Medicinal Chemistry, 2022):

Molecular target: P. falciparum apicoplast DNA polymerase (Pf-apPOL) (Plasmodium falciparum, UniProt Q8ILY1)
Experiment: Fluorescence-based high-throughput DNA polymerase assay (molecular beacon), primary screen and dose-response;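 as to % inhibition ApPOL 90': test concentration in µM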;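 as to % inhibition apPOL 180': test concentration in µM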
Format: biochemical
Method in brief: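 Single-point screening used 10 µM compound with 20 nM polymerase, 20 nM hairpin substrate and 6 µM dNTPs for 90 min at 25 °C. Confirmatory titrations (2.5–80 µM) followed fluorescence at three times, and IC50 was derived from a fit including a cooperativity term n.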

Sequence of P. falciparum apicoplast DNA polymerase (Pf-apPOL) (Q8ILY1 entry or part of it): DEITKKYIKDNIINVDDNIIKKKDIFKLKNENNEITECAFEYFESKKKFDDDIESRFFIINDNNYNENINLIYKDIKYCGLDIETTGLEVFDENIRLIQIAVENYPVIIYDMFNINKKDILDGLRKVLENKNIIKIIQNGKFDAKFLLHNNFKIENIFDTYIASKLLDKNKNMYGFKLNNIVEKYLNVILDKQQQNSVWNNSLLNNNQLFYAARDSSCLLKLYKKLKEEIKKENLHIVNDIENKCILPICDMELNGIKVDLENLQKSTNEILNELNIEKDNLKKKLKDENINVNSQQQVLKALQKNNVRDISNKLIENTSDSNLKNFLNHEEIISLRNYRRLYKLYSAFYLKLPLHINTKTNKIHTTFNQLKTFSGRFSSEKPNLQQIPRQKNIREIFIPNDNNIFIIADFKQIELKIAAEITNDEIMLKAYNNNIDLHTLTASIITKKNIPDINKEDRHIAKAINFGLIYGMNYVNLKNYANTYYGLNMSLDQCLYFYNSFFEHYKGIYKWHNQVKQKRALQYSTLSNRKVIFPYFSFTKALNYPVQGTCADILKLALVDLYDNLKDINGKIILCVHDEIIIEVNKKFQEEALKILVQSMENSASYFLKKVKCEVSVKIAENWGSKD

CSCCC(C)(O)CNC(=O)C1CC1 (stereo not drawn) [KU0200150]
DNA Pol ('DNA Pol'; screening value, unit not given; 90 min, 10 µM): 33
% inhibition Apo pol 10' (DRC-1; 10'; concentration 2.5): 4.373%
% inhibition Apo pol 10' (DRC-1; 10'; concentration 5): 5.1384%
% inhibition Apo pol 10' (DRC-1; 10'; concentration 10): 19.1529%
% inhibition Apo pol 10' (DRC-1; 10'; concentration 20): 27.3456%
% inhibition Apo pol 10' (DRC-1; 10'; concentration 40): 40.4484%
% inhibition Apo pol 10' (DRC-1; 10'; concentration 80): 39.3482%
% inhibition Apol 90' (DRC-1; 90'; concentration 2.5): 7.582%
% inhibition Apol 90' (DRC-1; 90'; concentration 5): 12.5551%
% inhibition Apol 90' (DRC-1; 90'; concentration 10): 30.4266%
% inhibition Apol 90' (DRC-1; 90'; concentration 20): 38.5831%
% inhibition Apol 90' (DRC-1; 90'; concentration 40): 51.9729%
% inhibition Apol 90' (DRC-1; 90'; concentration 80): 47.9472%
% inhibition apPOL 180' (DRC-1; 180'; concentration 2.5): 8.962%
% inhibition apPOL 180' (DRC-1; 180'; concentration 5): 14.7367%
% inhibition apPOL 180' (DRC-1; 180'; concentration 10): 36.1682%
% inhibition apPOL 180' (DRC-1; 180'; concentration 20): 43.4388%
% inhibition apPOL 180' (DRC-1; 180'; concentration 40): 54.9454%
% inhibition apPOL 180' (DRC-1; 180'; concentration 80): 46.3242%
% inhibition Apo pol 5' (DRC-2, 5', concentration 2.5): 0.182%
% inhibition Apo pol 5' (DRC-2, 5', concentration 5): 4.75%
% inhibition Apo pol 5' (DRC-2, 5', concentration 10): 22%
% inhibition Apo pol 5' (DRC-2, 5', concentration 20): 24%
% inhibition Apo pol 5' (DRC-2, 5', concentration 40): 29%
% inhibition Apo pol 5' (DRC-2, 5', concentration 80): 27%
% inhibition Apol 40' (DRC-2, 40', concentration 2.5): 3.34%
% inhibition Apol 40' (DRC-2, 40', concentration 5): 11%
% inhibition Apol 40' (DRC-2, 40', concentration 10): 28%
% inhibition Apol 40' (DRC-2, 40', concentration 20): 33%
% inhibition Apol 40' (DRC-2, 40', concentration 40): 41%
% inhibition Apol 40' (DRC-2, 40', concentration 80): 41%
% inhibition ApPOL 90' (DRC-2, 90', concentration 2.5): 3.4%
% inhibition ApPOL 90' (DRC-2, 90', concentration 5): 11%
% inhibition ApPOL 90' (DRC-2, 90', concentration 10): 27%
% inhibition ApPOL 90' (DRC-2, 90', concentration 20): 30%
% inhibition ApPOL 90' (DRC-2, 90', concentration 40): 42%
% inhibition ApPOL 90' (DRC-2, 90', concentration 80): 41%
% inhibition apPOL 180' (DRC-2, 180', concentration 2.5): 0.149%
% inhibition apPOL 180' (DRC-2, 180', concentration 5): 5%
% inhibition apPOL 180' (DRC-2, 180', concentration 10): 17%
% inhibition apPOL 180' (DRC-2, 180', concentration 20): 18%
% inhibition apPOL 180' (DRC-2, 180', concentration 40): 32%
% inhibition apPOL 180' (DRC-2, 180', concentration 80): 32%
% inhibition Apol 40' (conc 5 (unit not given); 40'; DRC-2): 11%
% inhibition ApPOL 90' (conc 5 (unit not given); 90'; DRC-2): 11%
% inhibition ApPOL 90' (conc 10 (unit not given); 90'; DRC-2): 27%
% inhibition Apol 40' (conc 40 (unit not given); 40'; DRC-2): 41%
% inhibition apPOL 180' (conc 40 (unit not given); 180'; DRC-2): 32%
% inhibition Apo pol 5' (conc 80 (unit not given); 5'; DRC-2): 27%
% inhibition Apol 40' (conc 80 (unit not given); 40'; DRC-2): 41%
% inhibition ApPOL 90' (conc 80 (unit not given); 90'; DRC-2): 41%
% inhibition apPOL 180' (conc 80 (unit not given); 180'; DRC-2): 32%
DNA Pol (primary screen hit value, DNA Pol (186 hits); 90 min, 10 µM): 33

O=C(Cn1ccc2c(=O)[nH]ccc21)Nc1ccc(Cl)cc1 [Molecule 36, O=C(Cn1ccc2c1cc[nH]c2=O)Nc1ccc(cc1)Cl]
% inhibition Apo pol 10' (DRC-1; 10'; concentration 2.5): 6.801%
% inhibition Apo pol 10' (DRC-1; 10'; concentration 5): 22.3776%
% inhibition Apo pol 10' (DRC-1; 10'; concentration 10): 24.792%
% inhibition Apo pol 10' (DRC-1; 10'; concentration 20): 79.2996%
% inhibition Apo pol 10' (DRC-1; 10'; concentration 40): 82.0585%
% inhibition Apo pol 10' (DRC-1; 10'; concentration 80): 79.648%
% inhibition Apol 90' (DRC-1; 90'; concentration 2.5): -0.4643%
% inhibition Apol 90' (DRC-1; 90'; concentration 5): 11.3565%
% inhibition Apol 90' (DRC-1; 90'; concentration 10): 14.0157%
% inhibition Apol 90' (DRC-1; 90'; concentration 20): 73.6159%
% inhibition Apol 90' (DRC-1; 90'; concentration 40): 79.7069%
% inhibition Apol 90' (DRC-1; 90'; concentration 80): 82.9478%
% inhibition apPOL 180' (DRC-1; 180'; concentration 2.5): -6.005%
% inhibition apPOL 180' (DRC-1; 180'; concentration 5): 0.9781%
% inhibition apPOL 180' (DRC-1; 180'; concentration 10): 3.9308%
% inhibition apPOL 180' (DRC-1; 180'; concentration 20): 61.1275%
% inhibition apPOL 180' (DRC-1; 180'; concentration 40): 73.0225%
% inhibition apPOL 180' (DRC-1; 180'; concentration 80): 82.2877%
% inhibition Apo pol 5' (DRC-2, 5', concentration 10 (unit not given)): 44%
% inhibition Apo pol 5' (DRC-2, 5', concentration 20 (unit not given)): 44%
% inhibition Apol 40' (DRC-2, 40', concentration 10 (unit not given)): 57%
% inhibition Apol 40' (DRC-2, 40', concentration 20 (unit not given)): 63%
% inhibition Apol 40' (DRC-2, 40', concentration 40 (unit not given)): 63%
% inhibition ApPOL 90' (DRC-2, 90', concentration 5 (unit not given)): 20%
% inhibition ApPOL 90' (DRC-2, 90', concentration 10 (unit not given)): 57%
% inhibition ApPOL 90' (DRC-2, 90', concentration 40 (unit not given)): 67%
% inhibition apPOL 180' (DRC-2, 180', concentration 20 (unit not given)): 63%
% inhibition apPOL 180' (DRC-2, 180', concentration 80 (unit not given)): 67%
% inhibition Apo pol 5' (DRC-2; 5'; concentration 2.5): 0%
% inhibition Apo pol 5' (DRC-2; 5'; concentration 5): 20%
% inhibition Apo pol 5' (DRC-2; 5'; concentration 5 (unit not given)): 20%
% inhibition Apo pol 5' (DRC-2; 5'; concentration 10): 44%
% inhibition Apo pol 5' (DRC-2; 5'; concentration 20): 44%
% inhibition Apo pol 5' (DRC-2; 5'; concentration 40): 41%
% inhibition Apo pol 5' (DRC-2; 5'; concentration 80): 30%
% inhibition Apol 40' (DRC-2; 40'; concentration 2.5): -0.111%
% inhibition Apol 40' (DRC-2; 40'; concentration 5): 24%
% inhibition Apol 40' (DRC-2; 40'; concentration 10): 57%
% inhibition Apol 40' (DRC-2; 40'; concentration 20): 63%
% inhibition Apol 40' (DRC-2; 40'; concentration 40): 63%
% inhibition Apol 40' (DRC-2; 40'; concentration 80): 56%
% inhibition ApPOL 90' (DRC-2; 90'; concentration 2.5): -2%
% inhibition ApPOL 90' (DRC-2; 90'; concentration 5): 20%
% inhibition ApPOL 90' (DRC-2; 90'; concentration 10): 57%
% inhibition ApPOL 90' (DRC-2; 90'; concentration 20): 66%
% inhibition ApPOL 90' (DRC-2; 90'; concentration 40): 67%
% inhibition ApPOL 90' (DRC-2; 90'; concentration 80): 61%
% inhibition apPOL 180' (DRC-2; 180'; concentration 2.5): -7%
% inhibition apPOL 180' (DRC-2; 180'; concentration 5): 11%
% inhibition apPOL 180' (DRC-2; 180'; concentration 10): 48%
% inhibition apPOL 180' (DRC-2; 180'; concentration 20): 63%
% inhibition apPOL 180' (DRC-2; 180'; concentration 40): 69%
% inhibition apPOL 180' (DRC-2; 180'; concentration 80): 67%
DNA Pol (primary screen value of the 186 hits; unit not given; 90 min, 10 µM): 46
DNA Pol (primary screen value, head "DNA Pol", unit not given; 90 min, 10 µM): 46
